One data set concerns the target human PAI-1 (Homo sapiens, UniProt P05121). Briefly: Assay for determining IC50 of inhibition of PAI-1 (Antibody Assay). Type of data set: binding. The note with it: footnote a: determined by the Antibody Assay; active PAI-1 bound to tPA-coated plate, pH 7.5. How it is done: Assay for Determining IC50 of Inhibition of PAI-1
This assay is based upon the non-SDS dissociable interaction between tPA and active PAI-1. Assay plates are initially coated with human tPA (10 μg/ml). Test compounds are dissolved in DMSO at 10 mM, then diluted with physiologic buffer (pH 7.5) to a final concentration of 1-50 μM. The test compounds are incubated with human PAI-1 (50 ng/ml) for 15 minutes at room temperature. The tPA-coated plate is washed with a solution of 0.05% Tween 20 and 0.1% BSA, then the plate is blocked with a solution of 3% BSA. An aliquot of the test compound/PAI-1 solution is then added to the tPA-coated plate, incubated at room temperature for 1 hour, and washed. Active PAI-1 bound to the plate is assessed by adding an aliquot of a 1:1000 dilution of the 33B8 monoclonal antibody against human PAI-1, and incubating the plate at room temperature for 1 hour (Molecular Innovations, Royal Oak, Mich.). The plate is again washed, and a solution of goat anti-mouse IgG-alkaline phosphatase conjugate is added at a 1:50,000 dilution in goat serum. The plate is incubated 30 minutes at room temperature, washed, and a solution of alkaline phosphatase substrate is added. The plate is incubated 45 minutes at room temperature, and color development is determined at OD405nm. The quantitation of active PAI-1 bound to tPA at varying concentrations of the test compound is used to determine the IC50. Results are analyzed using a logarithmic best-fit equation. The assay sensitivity is 5 ng/ml of human PAI-1 as determined from a standard curve ranging from 0-100 ng/ml.

For orientation: IC50 means the concentration that gives 50% inhibition. High values mean weaker potency, low ones greater potency. In general, melting point refers to the temperature, or range, at which the solid turns liquid.

Sequence of human PAI-1 (P05121 24-402): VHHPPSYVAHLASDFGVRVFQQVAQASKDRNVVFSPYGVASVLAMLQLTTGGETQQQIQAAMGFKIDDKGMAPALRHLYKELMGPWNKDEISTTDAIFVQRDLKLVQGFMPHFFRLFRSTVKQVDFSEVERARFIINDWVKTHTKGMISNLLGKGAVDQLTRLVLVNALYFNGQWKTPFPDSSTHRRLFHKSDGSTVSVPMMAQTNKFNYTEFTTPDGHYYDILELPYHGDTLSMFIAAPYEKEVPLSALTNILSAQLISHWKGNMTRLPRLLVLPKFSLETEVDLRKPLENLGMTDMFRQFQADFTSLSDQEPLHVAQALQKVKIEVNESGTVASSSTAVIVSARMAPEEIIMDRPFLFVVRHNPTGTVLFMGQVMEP

`O=C(CC1CCCC1)c1c(-c2ccc3c(Br)c(OCc4nnn[nH]4)ccc3c2)oc2ccccc12` [Example 13, 1-{2-[5-Bromo-6-(1H-1,2,3,4-tetraazol-5-ylmethoxy)-2-naphthyl]-1-benzofuran-3-yl}-2-cyclopentyl-1-ethanone] returned a melting point of 186 to 187 °C. Moreover, on human PAI-1, it took 10.1 µM to reach half-maximal inhibition (IC50).

In the case of `CCCCC(=O)c1c(-c2ccc3c(-c4ccccc4)c(OCC(=O)[O-])ccc3c2)oc2ccccc12.[Na+]` [Example 14, 2-{[6-(3-Pentanoyl-1-benzofuran-2-yl)-1-phenyl-2-naphthyl]oxy}acetic acid, sodium salt], the melting point is 272 to 273 °C (dec.). The compound also registered an IC50 at human PAI-1 of 2.7 µM.

Consider `CCCCC(=O)c1c(-c2ccc3c(-c4ccccc4)c(OCc4nnn[nH]4)ccc3c2)oc2ccccc12` [Example 16, 1-{2-[5-Phenyl-6-(1H1,2,3,4-tetraazol-5-ylmethoxy)-2-naphthyl]-1-benzofuran-3-yl}-1-pentanone], for which the melting point lay within 160 to 164 °C. This compound also had a half-inhibitory concentration (IC50) at human PAI-1 of 10 µM.

In the case of `O=C(O)COc1ccc2cc(-c3oc4ccccc4c3C(=O)CC3CCCC3)ccc2c1Br` [Example 17, 2-({1-Bromo-6-[3-(2-cyclopentylacetyl)-1-benzofuran-2-yl]-2-naphthyl}oxy)acetic acid], the melting point fell in the range of 150 to 152 °C. The same compound registered an IC50 on human PAI-1 of 2.7 µM.

For `CCCCC(=O)c1c(-c2ccc3c(C)c(OCc4nnn[nH]4)ccc3c2)oc2ccccc12` [Example 20, 1-{2-[5-Methyl-6-(1H-1,2,3,4-tetraazol-5-ylmethoxy)-2-naphthyl]-1-benzofuran-3-yl}-1-pentanone], the melting point was in the range of 162 to 164 °C. At human PAI-1, the IC50 turned out to be 24.2 µM.

On to `CCCCC(=O)c1c(-c2ccc3c(C)c(OCC(=O)O)ccc3c2)oc2ccccc12` [Example 22, 2-{[1-Methyl-6-(3-pentanoyl-1-benzofuran-2-yl)-2-naphthyl]oxy}acetic acid], for which the melting point lay within 153 to 155 °C. This compound also had an IC50 against human PAI-1 of 13.3 µM.

Take `CCCCC(=O)c1c(-c2ccc3c(C)c(OC(Cc4ccccc4)C(=O)[O-])ccc3c2)oc2ccccc12.[Na+]` (stereo not drawn) [Example 23, 2-{[1-Methyl-6-(3-pentanoyl-1-benzofuran-2-yl)-2-naphthyl]oxy}-3-phenylpropanoic acid, sodium salt]: the melting point lay in the range of 221 to 222 °C. In addition, at human PAI-1, the concentration for half-maximal inhibition (IC50) was 12.4 µM.

The compound `CCCCC(=O)c1c(-c2ccc3c(Cl)c(OCC(=O)O)ccc3c2)oc2ccccc12` [Example 24, 2-{[1-Chloro-6-(3-pentanoyl-1-benzofuran-2-yl)-2-naphthyl]oxy}acetic acid] yielded a melting point of 142 to 143 °C. At human PAI-1, this compound displayed an IC50 of 11 µM.

For `CCCCC(=O)c1c(-c2ccc3c(Cl)c(OCc4nnn[nH]4)ccc3c2)oc2ccccc12` [Example 25, 1-{2-[5-Chloro-6-(1H-1,2,3,4-tetraazol-5-ylmethoxy)-2-naphthyl]-1-benzofuran-3-yl}-1-pentanone], the melting point lay in the range of 168 to 169 °C. For the same compound, on human PAI-1, the IC50 amounted to 14 µM.

`O=C(O)COc1ccc2cc(-c3oc4ccccc4c3-c3ccccc3)ccc2c1-c1ccccc1` [Example 29, {[1-Phenyl-6-(3-phenyl-1-benzofuran-2-yl)-2-naphthyl]oxy}acetic acid] returned a melting point of 202 to 203 °C. The compound further had an IC50 at human PAI-1 of 3.85 µM.

As to `CCCCCc1c(-c2ccc3cc(OCc4nnn[nH]4)ccc3c2)oc2ccccc12` [Example 34, 5-[6-(3-Pentyl-benzofuran-2-yl)-naphthalen-2-yloxymethyl]-1H-tetrazole], the melting point is 178 to 180 °C. This compound yielded an IC50 against human PAI-1 of 8.17 µM.

The compound `CCCCCc1c(-c2ccc3c(Br)c(OCC(=O)O)ccc3c2)oc2ccccc12` [Example 36, [1-Bromo-6-(3-pentyl-benzofuran-2-yl)-naphthalen-2-yloxy]-acetic acid] returned a melting point of 159 to 161 °C. The IC50 on human PAI-1 was 6.54 µM.

(Values after US6599925B2 (Wyeth, priority 2001, dated 2003).)
